Assay results published in patent US8759098B2, “Method for cloning pluripotent stem cells” (Boston Biomedical Research Institute, Inc., priority 2009, dated 2014).

How the values were obtained:
Type in all cases: cell-based, mouse
Panstra 12 = test: SACK responsiveness (cell kinetics, colony formation), Panstra 12; parameters: key: SACK-responsive (R); non-responsive (NR); conditions: Panstra 12, SACK agent Xn
Description: (§1) The terms “SACK-R” and “Xn-responsive” are used interchangeably. Xn-responsive cells are not transformed cells.
(§2) In the example, the differentiated cells are adult mouse pancreatic islet cells and Xn is the chemical compound used to suppress asymmetric cell kinetics (SACK). […] These Xn-treated and Xn-responsive cells then proceeded to express alkaline phosphatase, a known enzyme marker that is highly expressed in undifferentiated cells such as primordial germ cells (FIG. 8), after culture in media that support the proliferation of mouse pluripotent stem cells. Under these conditions, these Xn-expanded and Xn-responsive cells also multiply to form colonies that take on a clonal mouse embryonic stem cell-like morphology in culture, resembling a compact clump of round tiny cells, the clump having a smooth and well defined edge (FIG. 7B).
The SACK-derived clonal pancreatic cell strains have properties of either beta-cell precursors (Pdx1+) or more primitive pancreatic cells (Pdx1−). In the colony formation analyses, three hundred (300) cells were plated in replicate (n=3) 30-mm diameter culture dishes. Twenty-four hours later, the culture medium was replaced with the medium supplemented with SACK agents as indicated. Ten days later, plates were stained with crystal violet and colonies counted. Xs, xanthosine; Xn, xanthine; Hx hypoxanthine.

Panstra 56 = test: Gene-free iPSC reprogramming, Panstra 56; conditions: Panstra 56, SACK agent Xn
Protocol: (§3) Each tested SACK-derived cell strain was cultured on STO cell feeder monolayers in control medium with 10% DFBS, dialyzed fetal bovine serum (DFBS) or either of two commercial media for culture of murine embryonic stem cells (ESCs) and for the culture of reprogrammed cells such as iPSCs. Each medium condition was evaluated with or without supplementation with 1 mM xanthine (Xn). P/S denotes routine use of the antibiotics penicillin and streptomycin.
(§4) The method is an original pharmacological procedure for producing pluripotent stem cells. Cell strains derived in xanthine (Xn)-supplemented medium, by the method of suppression of asymmetric cell kinetics (SACK), were cultured in commercial media specified for the culture and/or production of pluripotent stem cells such as embryonic stem cells and iPSCs. Approximately 150,000 cells were plated on confluent STO cell feeders (i.e., mouse embryonic fibroblasts pre-treated with mitomycin C) in 10-cm culture dishes. In 2 weeks, iPSC-like cell colonies were detected.
(§5) Tissue-specific stem cells (e.g., Panstra-25 and Panstra-12 mouse pancreatic stem cell strains in the instant example) were cultured on mitomycin C-treated STO cell monolayers in commercial embryonic stem cell medium supplemented with the purine salvage base xanthine at 1 mM concentration (FIG. 4). […]

[1] = system: reprogramming genes (Oct4, Sox2, Klf4, Myc, Lin28) in Panstra-11-Xn Non-responsive; test: Micro-array expression of reprogramming gene mRNAs, Panstra-11
Description: (§6) Table 2. Micro-array expression levels for described iPSC reprogramming gene mRNAs in SACK-derived mouse pancreatic stem cell strains. […] Panstra-11 is a non-responsive strain.
(§7) All the described induced pluripotent stem cell (iPSC) reprogramming genes are detected in two cell strains derived with the suppression of asymmetric cell kinetics (SACK)-agent xanthine (Xn). The SACK strains were derived from pancreatic islets of adult xanthine phosphoribosyl transferase (XPRT)-transgenic mice. The derivation of such strains requires both the XPRT-transgenic genotype and Xn.

SACK-R strain Panstra-25 = test: Insulin expression by immunofluorescence, pancreatic differentiation; conditions: routine culture conditions with Xn supplementation, three days
Description: Upper panels, routine culture conditions with Xn supplementation; lower panels, Xn-free differentiation conditions. DAPI, detection of corresponding cell nuclei. The expression of insulin was detected by immunofluorescence (data not shown). In order to study the formation of islet-like clusters after induction of differentiation in Xn-free medium, pancreatic beta-cell differentiation was induced by plating the cells on a poly-D-lysine substrate and changing growth medium to medium containing 1% dialysed fetal bovine serum, 20 ng/mL epidermal growth factor (EGF), 10 mM nicotinamide, and 25 mM glucose. […] Insulin was expressed in cells differentiated in Xn-free conditions after three days. The expression of insulin was detected by immunofluorescence (data not shown). DAPI, detection of corresponding cell nuclei. […] These properties of self-renewal in an undifferentiated state and the ability to produce differentiated pancreatic cells define the SACK-R strains as pancreatic tissue stem cells.

[2] = system: reprogramming genes (Oct4, Sox2, Klf4, Myc, Lin28) in Panstra-25 - Xn responsive; test: Micro-array expression of reprogramming gene mRNAs, Panstra-25
Description: as §6, §7

Panstra 11 = test: Gene-free iPSC reprogramming, Panstra 11; conditions: Panstra 11, SACK agent Xn
Protocol: as §3, §4, §5

Panstra 25 = test: SACK responsiveness (cell kinetics, colony formation), Panstra 25; parameters: key: SACK-responsive (R); non-responsive (NR); conditions: Panstra 25, SACK agent Xn
Protocol: Cells were plated at colony forming density in SACK-free culture medium (Control) or culture medium supplemented to 1 mM concentration with the SACK agents xanthosine (Xs), xanthine (Xn), or hypoxanthine (Hx).
as §1, §2
The SACK-derived clonal pancreatic cell strains have properties of either beta-cell precursors (Pdx1+) or more primitive pancreatic cells (Pdx1−). In the colony formation analyses, three hundred (300) cells were plated in replicate (n=3) 30-mm diameter culture dishes. […] Ten days later, plates were stained with crystal violet and colonies counted. […]

O=c1[nH]c(=O)c2[nH]cnc2[nH]1 [Xn, xanthine]
SACK Type (Panstra 12): R
iPSC (gene-free iPSC reprogramming) (Panstra 56): No
Klf4 expression (gene micro-array data) [1]: 21.6
Lin28 expression (gene micro-array data) [1]: 0.9
Myc expression (gene micro-array data) [1]: 19.6
Oct4 expression (gene micro-array data) [1]: 2.6
Sox2 expression (gene micro-array data) [1]: 0.1
expression of insulin (immunofluorescence) (SACK-R strain Panstra-25): no expressed insulin was detectable
Klf4 expression (gene micro-array data) ([2]; Panstra-25, Xn): 31.8
Lin28 expression (gene micro-array data) ([2]; Panstra-25, Xn): 1.0
Myc expression (gene micro-array data) ([2]; Panstra-25, Xn): 35.5
Oct4 expression (gene micro-array data) ([2]; Panstra-25, Xn): 2.3
Sox2 expression (gene micro-array data) ([2]; Panstra-25, Xn): 0.2
Klf4 and Myc mRNA expression in response to culture in Xn ([2]; SACK-derived strains, Table 2): increased mRNA expression
iPSC (gene-free iPSC reprogramming) (Panstra 11): No
SACK Type (Panstra 25): R
